According to the NIST ThermoML archive (doi:10.1021/je900164a):
Numbers after ± are expanded uncertainties.

Assay: xn = mol fraction of the nth substance listed
Details: 101 kPa, Liquid, Vibrating tube method

CCCC[N+](CCCC)(CCCC)CCCC.[Br-] [tetrabutylammonium bromide] + O
Details	mass density [kg/m3]
276.15 K, x1 = 0.0009	1001.35 ± 0.041
276.15 K, x1 = 0.0018	1002.75 ± 0.042
276.15 K, x1 = 0.00359	1005.6 ± 0.044
276.15 K, x1 = 0.00715	1011.37 ± 0.048
276.15 K, x1 = 0.01069	1017.09 ± 0.053
276.15 K, x1 = 0.01421	1022.49 ± 0.059
276.15 K, x1 = 0.0177	1027.72 ± 0.063
276.15 K, x1 = 0.02202	1033.53 ± 0.067
276.15 K, x1 = 0.02631	1038.46 ± 0.071
276.15 K, x1 = 0.03056	1042.53 ± 0.098
277.15 K, x1 = 0.0009	1001.35 ± 0.041
277.15 K, x1 = 0.0018	1002.73 ± 0.042
277.15 K, x1 = 0.00359	1005.52 ± 0.043
277.15 K, x1 = 0.00715	1011.23 ± 0.048
277.15 K, x1 = 0.01069	1016.88 ± 0.053
277.15 K, x1 = 0.01421	1022.16 ± 0.058
277.15 K, x1 = 0.0177	1027.3 ± 0.063
277.15 K, x1 = 0.02202	1033.01 ± 0.069
277.15 K, x1 = 0.02631	1037.94 ± 0.072
277.15 K, x1 = 0.03056	1040.98 ± 0.085
277.15 K, x1 = 0.03478	1045.39 ± 0.077
277.15 K, x1 = 0.0431	1050.63 ± 0.085
277.15 K, x1 = 0.05128	1054.86 ± 0.09
277.15 K, x1 = 0.07499	1060.81 ± 0.12
278.15 K, x1 = 0.0009	1001.32 ± 0.041
278.15 K, x1 = 0.0018	1002.69 ± 0.042
278.15 K, x1 = 0.00359	1005.47 ± 0.043
278.15 K, x1 = 0.00715	1011.09 ± 0.048
278.15 K, x1 = 0.01069	1016.66 ± 0.053
278.15 K, x1 = 0.01421	1021.91 ± 0.058
278.15 K, x1 = 0.0177	1026.96 ± 0.063
278.15 K, x1 = 0.02202	1032.57 ± 0.068
278.15 K, x1 = 0.02631	1037.41 ± 0.072
278.15 K, x1 = 0.03056	1040.41 ± 0.076
278.15 K, x1 = 0.03478	1044.76 ± 0.08
278.15 K, x1 = 0.0431	1049.93 ± 0.088
278.15 K, x1 = 0.05128	1054.13 ± 0.093
278.15 K, x1 = 0.07499	1060.07 ± 0.12
279.18 K, x1 = 0.0009	1001.28 ± 0.041
279.18 K, x1 = 0.0018	1002.65 ± 0.042
279.18 K, x1 = 0.00359	1005.39 ± 0.043
279.18 K, x1 = 0.00715	1010.96 ± 0.048
279.18 K, x1 = 0.01069	1016.45 ± 0.053
279.18 K, x1 = 0.01421	1021.63 ± 0.058
279.18 K, x1 = 0.0177	1026.61 ± 0.063
279.18 K, x1 = 0.02202	1032.11 ± 0.069
279.18 K, x1 = 0.02631	1036.89 ± 0.072
279.18 K, x1 = 0.03056	1039.82 ± 0.077
279.18 K, x1 = 0.03478	1044.11 ± 0.081
279.18 K, x1 = 0.0431	1049.24 ± 0.088
279.18 K, x1 = 0.05128	1053.4 ± 0.093
279.18 K, x1 = 0.07499	1059.33 ± 0.12
280.15 K, x1 = 0.0009	1001.23 ± 0.041
280.15 K, x1 = 0.0018	1002.58 ± 0.042
280.15 K, x1 = 0.00359	1005.29 ± 0.043
280.15 K, x1 = 0.00715	1010.78 ± 0.048
280.15 K, x1 = 0.01069	1016.22 ± 0.053
280.15 K, x1 = 0.01421	1021.32 ± 0.058
280.15 K, x1 = 0.0177	1026.22 ± 0.063
280.15 K, x1 = 0.02202	1031.62 ± 0.068
280.15 K, x1 = 0.02631	1036.32 ± 0.072
280.15 K, x1 = 0.03056	1039.11 ± 0.076
280.15 K, x1 = 0.03478	1043.44 ± 0.08
280.15 K, x1 = 0.0431	1048.51 ± 0.085
280.15 K, x1 = 0.05128	1052.65 ± 0.093
280.15 K, x1 = 0.07499	1058.55 ± 0.12
281.15 K, x1 = 0.0009	1001.16 ± 0.041
281.15 K, x1 = 0.0018	1002.49 ± 0.042
281.15 K, x1 = 0.00359	1005.18 ± 0.043
281.15 K, x1 = 0.00715	1010.61 ± 0.048
281.15 K, x1 = 0.01069	1015.98 ± 0.053
281.15 K, x1 = 0.01421	1020.99 ± 0.058
281.15 K, x1 = 0.0177	1025.83 ± 0.062
281.15 K, x1 = 0.02202	1031.18 ± 0.068
281.15 K, x1 = 0.02631	1035.8 ± 0.071
281.15 K, x1 = 0.03056	1038.63 ± 0.075
281.15 K, x1 = 0.03478	1042.82 ± 0.08
281.15 K, x1 = 0.0431	1048.23 ± 0.087
281.15 K, x1 = 0.05128	1051.94 ± 0.092
281.15 K, x1 = 0.07499	1057.83 ± 0.12
282.15 K, x1 = 0.0009	1001.09 ± 0.041
282.15 K, x1 = 0.0018	1002.4 ± 0.042
282.15 K, x1 = 0.00359	1005.07 ± 0.043
282.15 K, x1 = 0.00715	1010.44 ± 0.048
282.15 K, x1 = 0.01069	1015.72 ± 0.052
282.15 K, x1 = 0.01421	1020.68 ± 0.057
282.15 K, x1 = 0.0177	1025.44 ± 0.062
282.15 K, x1 = 0.02202	1030.69 ± 0.068
282.15 K, x1 = 0.02631	1035.23 ± 0.071
282.15 K, x1 = 0.03056	1038.05 ± 0.075
282.15 K, x1 = 0.03478	1042.16 ± 0.08
282.15 K, x1 = 0.0431	1047.12 ± 0.09
282.15 K, x1 = 0.05128	1051.21 ± 0.092
282.15 K, x1 = 0.07499	1057.05 ± 0.12
283.15 K, x1 = 0.0009	1001 ± 0.041
283.15 K, x1 = 0.0018	1002.3 ± 0.042
283.15 K, x1 = 0.00359	1004.95 ± 0.043
283.15 K, x1 = 0.00715	1010.26 ± 0.048
283.15 K, x1 = 0.01069	1015.5 ± 0.053
283.15 K, x1 = 0.01421	1020.38 ± 0.058
283.15 K, x1 = 0.0177	1025.06 ± 0.064
283.15 K, x1 = 0.02202	1030.21 ± 0.07
283.15 K, x1 = 0.02631	1034.68 ± 0.082
283.15 K, x1 = 0.03056	1037.44 ± 0.071
283.15 K, x1 = 0.03478	1041.49 ± 0.093
283.15 K, x1 = 0.0431	1046.41 ± 0.091
283.15 K, x1 = 0.05128	1050.46 ± 0.11
283.15 K, x1 = 0.07499	1056.3 ± 0.12
288.15 K, x1 = 0.0009	1000.35 ± 0.041
288.15 K, x1 = 0.0018	1001.6 ± 0.042
288.15 K, x1 = 0.00359	1004.1 ± 0.043
288.15 K, x1 = 0.00715	1009.15 ± 0.047
288.15 K, x1 = 0.01069	1014.04 ± 0.052
288.15 K, x1 = 0.01421	1018.72 ± 0.057
288.15 K, x1 = 0.0177	1023.06 ± 0.061
288.15 K, x1 = 0.02202	1027.79 ± 0.066
288.15 K, x1 = 0.02631	1031.87 ± 0.07
288.15 K, x1 = 0.03056	1035.33 ± 0.073
288.15 K, x1 = 0.03478	1038.35 ± 0.077
288.15 K, x1 = 0.0431	1042.93 ± 0.084
288.15 K, x1 = 0.05128	1046.34 ± 0.092
293.15 K, x1 = 0.0009	999.405 ± 0.041
293.15 K, x1 = 0.0018	1000.6 ± 0.042
293.15 K, x1 = 0.00359	1002.98 ± 0.043
293.15 K, x1 = 0.00715	1007.76 ± 0.047
293.15 K, x1 = 0.01069	1012.37 ± 0.052
293.15 K, x1 = 0.01421	1016.75 ± 0.056
293.15 K, x1 = 0.0177	1020.77 ± 0.06
293.15 K, x1 = 0.02202	1025.18 ± 0.065
293.15 K, x1 = 0.02631	1028.99 ± 0.069
293.15 K, x1 = 0.03056	1032.22 ± 0.072
293.15 K, x1 = 0.03478	1035.02 ± 0.075
293.15 K, x1 = 0.0431	1039.41 ± 0.082
293.15 K, x1 = 0.05128	1042.74 ± 0.089
298.15 K, x1 = 0.0009	998.18 ± 0.043
298.15 K, x1 = 0.0018	999.32 ± 0.042
298.15 K, x1 = 0.00359	1001.59 ± 0.043
298.15 K, x1 = 0.00715	1006.13 ± 0.047
298.15 K, x1 = 0.01069	1010.49 ± 0.051
298.15 K, x1 = 0.01421	1014.53 ± 0.055
298.15 K, x1 = 0.0177	1018.3 ± 0.059
298.15 K, x1 = 0.02202	1022.43 ± 0.063
298.15 K, x1 = 0.02631	1026 ± 0.067
298.15 K, x1 = 0.03056	1029.06 ± 0.071
298.15 K, x1 = 0.03478	1031.68 ± 0.074
298.15 K, x1 = 0.0431	1035.89 ± 0.081
298.15 K, x1 = 0.05128	1039.06 ± 0.088
303.15 K, x1 = 0.0009	996.74 ± 0.044
303.15 K, x1 = 0.0018	997.82 ± 0.044
303.15 K, x1 = 0.00359	999.99 ± 0.043
303.15 K, x1 = 0.00715	1004.3 ± 0.047
303.15 K, x1 = 0.01069	1008.43 ± 0.051
303.15 K, x1 = 0.01421	1012.26 ± 0.054
303.15 K, x1 = 0.0177	1015.77 ± 0.058
303.15 K, x1 = 0.02202	1019.65 ± 0.062
303.15 K, x1 = 0.02631	1022.97 ± 0.066
303.15 K, x1 = 0.03056	1025.85 ± 0.07
303.15 K, x1 = 0.03478	1028.34 ± 0.072
303.15 K, x1 = 0.0431	1032.36 ± 0.079
303.15 K, x1 = 0.05128	1035.44 ± 0.086
308.15 K, x1 = 0.0009	995.085 ± 0.045
308.15 K, x1 = 0.0018	996.14 ± 0.045
308.15 K, x1 = 0.00359	998.22 ± 0.044
308.15 K, x1 = 0.00715	1002.32 ± 0.046
308.15 K, x1 = 0.01069	1006.21 ± 0.05
308.15 K, x1 = 0.01421	1009.84 ± 0.054
308.15 K, x1 = 0.0177	1013.13 ± 0.057
308.15 K, x1 = 0.02202	1016.74 ± 0.062
308.15 K, x1 = 0.02631	1019.88 ± 0.065
308.15 K, x1 = 0.03056	1022.54 ± 0.068
308.15 K, x1 = 0.03478	1024.97 ± 0.072
308.15 K, x1 = 0.0431	1028.78 ± 0.078
308.15 K, x1 = 0.05128	1031.82 ± 0.084
